Data: PMC8754130, “A Peptide from Budding Yeast GAPDH Serves as a Promising Antifungal against Cryptococcus neoformans” (Microbiology Spectrum, 2022)
Several values for one entry are separate records, joined by “and”; a condition that tells them apart may be missing. Identical values can stand only once.

What was measured:
[1] = Calcein leakage assay, fungal membrane mimic; conditions: 4 μM; Tris buffer pH 7.4; fluorescence 10 min after addition; 100% = Triton X-100; three independent experiments
Method: These experiments were performed as previously described ([34]). Briefly, phospholipid vesicles were prepared from POPC: POPE (at a ratio of 1:4), POPC/POPE/Erg (at a ratio of 5:4:3), and POPC with 40% cholesterol, which mimics the cell membranes of bacterial, fungal, and mammalian cells, respectively. The resulting lipid film was suspended in Tris buffer (20 mM Tris, 100 mM NaCl, and 40 mM calcein, pH 7.4). Extravehicular buffer containing lipid vesicles with entrapped calcein was read in a fluorimeter using excitation at 490 nm and emission at 520 nm. […] The 10% Triton X-100 was used to disrupt lipid vesicles for obtaining the maximum fluorescence intensity.

Cryptococcus neoformans = experiment: organism not typed; conditions: 72 h, 37°C, three independent experiments
Method: (§1) The MIC of the peptide was determined using a standardized micro-broth dilution method with a panel of pathogenic yeast strains (C. albicans, […], C. neoformans, and C. gattii) and bacterial strains (Escherichia coli, Micrococcus luteus, Staphylococcus aureus, and Pseudomonas aeruginosa).
(§2) The value of the MIC was defined as the lowest concentration of drugs showing no yeast growth. The MIC was determined by three independent repeats, each repeat in quintuplicate.

C. neoformans H99 cells [2] = experiment: JC-10 mitochondrial membrane potential assay; type: cell-based, Cryptococcus neoformans; conditions: 8 μM, 37°C, 2 h; JC-10, flow cytometry; three experiments
Method: (§3) H99 cells were cultured in RPMI 1640 medium (Sigma, Shanghai) with 0.165 M MOPS (Sigma, Shanghai) overnight and diluted in fresh medium to an OD600 of 1. For the Annexin V-PI assay, the yeast protoplast preparation kit (BestBio, Shanghai) was used to prepare the protoplasts. […] The TUNEL assay was performed by using the Apoptosis Detection Kit (Yeasen, Shanghai) according to the manufacturer’s instructions. For JC-10 staining, H99 cells were stained by 30 μM JC-10 (Yeasen, Shanghai) and 0.02% Pluronic F-127(Beyotime, Shanghai) at 37°C for 30 min. The intracellular ROS was stained by the incubation with 5 μM H2DCFDA(MCE, Shanghai) at 37°C for 30 min. The stained samples were measured by BD FACSCalibur as described ([58]). The data were analyzed by FlowjoX. All experiments were repeated three times independently.

[3] = test system: ergosterol in the cell membrane of C. neoformans (H99) cells; experiment: Filipin III staining of membrane ergosterol; type: cell-based, Cryptococcus neoformans; conditions: 1 h
Text: All fluorescent images were collected with the confocal microscope (Olympus IX81) at a magnification of ×100 (oil immersion). […] Images were taken using the same confocal microscope described above. […] The fluorescent images of mitochondria were acquired on the confocal microscope (Leica SP8). At least 200 cells per sample were categorized based on their tubular or fragmented mitochondria morphologies. To quantify the fluorescent staining of ergosterol by filipin III, H99 cells with different treatment were stained by filipin III as described ([37]). The fluorescent images were acquired by the IX81 confocal microscope described above. The ImageJ was used to measure the mean fluorescent intensity. The statistical analysis of fluorescent intensity was based on three independent experiments. In each experiment, at least 100 cells were counted in three different visual fields.

Aspergillus fumigatus = experiment: MIC, micro-broth dilution (CLSI M27-A4); type: cell-based; conditions: Aspergillus fumigatus (YJ407), laboratory stock; three independent experiments
Method: as §1, §2

[4] = test system: C. neoformans H99 protoplasts; experiment: Annexin V staining (phosphatidylserine exposure), flow cytometry; type: cell-based, Cryptococcus neoformans; conditions: 2.5 μM, 1 h; three independent experiments
Method: as §3

[5] = test system: C. neoformans H99 protoplasts; experiment: PI staining of protoplasts, flow cytometry; type: cell-based, Cryptococcus neoformans; conditions: 2.5 μM, 1 h; around 30,000 protoplasts per treatment; three independent experiments
Method: as §3

[6] = test system: C. neoformans protoplasts; experiment: Protoplast rupture experiment (microscopy); type: cell-based, Cryptococcus neoformans; conditions: 2.5 μM, 2 h; three experiments
Text: Many antimicrobial peptides form pores in cell membranes to kill cells ([38]). […] To test this hypothesis, C. neoformans protoplasts were adopted for cell rupture experiments. Because the cell walls were digested with enzymes, the unprotected protoplasts could be easily ruptured following peptide-induced pore formation within the cell membrane. Moreover, without the structural support of a cell wall, cell rupture could be clearly observed under the microscope.

C. neoformans H99 cells [7] = experiment: Time-killing experiment (killing kinetics); type: cell-based, Cryptococcus neoformans; conditions: 2.5 μM (MIC of melittin), over 4 h, 37°C, RPMI 1640, CFU counting; three independent experiments
Method: The time-killing experiment was performed as described ([17]). C. neoformans H99 cells were cultured in RPMI 1640 medium overnight, and the concentration was adjusted to 3 × 10^7 colony-forming units (CFU)/mL. […] Aliquots were taken out to wash and serially diluted 1:10 in RPMI 1640 medium to final concentration of nearly 300 CFU/mL, and plate on the YPD medium at the corresponding time points. After incubating at 37°C for 48 h, colonies were counted to calculate the survival rate. The percentage of CFU of growth control was set as 100%. The percentage of recovering CFU on plates was plotted against time. The data were obtained from three independent experiments.

[8] = strain JEC21, RPMI 1640 + 0.165 M MOPS, lowest concentration showing no yeast growth
[9] = Cryptococcus neoformans, fzc9Δ, FLC-resistant strain derived from H99, RPMI 1640 + 0.165 M MOPS
[10] = Cryptococcus neoformans, gat5Δ, FLC-resistant strain derived from H99, RPMI 1640 + 0.165 M MOPS
[11] = Cryptococcus neoformans, liv4Δ, FLC-resistant strain derived from H99, RPMI 1640 + 0.165 M MOPS

Question: Which calcein leakage [1] does the source give for `OC(Cn1cncn1)(Cn1cncn1)c1ccc(F)cc1F` [FLC, fluconazole] here?
Answer: did not induce calcein leakage

Question: What about the MIC (Cryptococcus neoformans; [8]) of the same molecule?
Answer: 6.5 µM

Question: And the MIC (Cryptococcus neoformans; [9])?
Answer: > 26 µM

Question: What about the MIC (Cryptococcus neoformans; [10]) of the same molecule?
Answer: > 26 µM

Question: And the MIC (Cryptococcus neoformans; [11])?
Answer: > 26 µM

Question: What about the MIC (Cryptococcus neoformans; fzc9Δ, FLC-resistant strain derived from H99, RPMI 1640 + 0.165 M MOPS) of the same molecule?
Answer: > 8 µg/mL

Question: What about the MIC (Cryptococcus neoformans; gat5Δ, FLC-resistant strain derived from H99, RPMI 1640 + 0.165 M MOPS) of the same molecule?
Answer: > 8 µg/mL

Question: And the MIC (Cryptococcus neoformans; liv4Δ, FLC-resistant strain derived from H99, RPMI 1640 + 0.165 M MOPS)?
Answer: > 8 µg/mL

Question: With “IRIAINGFGRIGRPPPRPPPQRKDIEVVA [control peptide]” as the molecule, how does the “cells that lost their mitochondrial membrane potential” value (C. neoformans H99 cells [2]) read?
Answer: ~5%

Question: And the calcein leakage [1]?
Answer: did not induce calcein leakage

Question: For `C[C@@H]1C/C=C/C=C/C=C/C=C/[C@H](O[C@@H]2O[C@H](C)[C@@H](O)[C@H](N)[C@@H]2O)C[C@@H]2O[C@](O)(C[C@@H](O)C[C@H]3O[C@@H]3/C=C/C(=O)O1)C[C@H](O)[C@H]2C(=O)O` [natamycin], which “filipin III signal” value ([3]; 15 μM) is on record?
Answer: a decreased level of filipin III signal

Question: Which MIC (Aspergillus fumigatus) does the source give for `C[C@@H]1[C@H](O)[C@@H](C)/C=C/C=C/C=C/C=C/C=C/C=C/C=C/[C@H](O[C@@H]2O[C@H](C)[C@@H](O)[C@H](N)[C@@H]2O)C[C@@H]2O[C@](O)(C[C@@H](O)C[C@@H](O)[C@H](O)CC[C@@H](O)C[C@@H](O)CC(=O)O[C@H]1C)C[C@H](O)[C@H]2C(=O)O` [AmB, amphotericin B] here?
Answer: 0.4 µM and 0.37 µg/mL

Question: And the MIC (Cryptococcus neoformans; [8])?
Answer: 0.4 µM

Question: And the MIC (Cryptococcus neoformans; Cryptococcus neoformans, atf1Δ, AmB-resistant strain derived from H99, RPMI 1640 + 0.165 M MOPS)?
Answer: > 2.2 µM

Question: And the MIC (Cryptococcus neoformans; [9])?
Answer: 1.1 µM and 1 µg/mL

Question: And the MIC (Cryptococcus neoformans; Cryptococcus neoformans, fzc51Δ, AmB-resistant strain derived from H99, RPMI 1640 + 0.165 M MOPS)?
Answer: > 2.2 µM and > 2 µg/mL

Question: What about the MIC (Cryptococcus neoformans; [10]) of the same molecule?
Answer: 1.1 µM and 1 µg/mL

Question: And the MIC (Cryptococcus neoformans; [11])?
Answer: 1.1 µM and 1 µg/mL

Question: And the MIC (Cryptococcus neoformans; Cryptococcus neoformans, strain H99, RPMI 1640 + 0.165 M MOPS)?
Answer: 1.1 µM and 1 µg/mL

Question: What about the MIC (Cryptococcus neoformans; atf1Δ, AmB-resistant strain derived from H99, RPMI 1640 + 0.165 M MOPS) of the same molecule?
Answer: > 2 µg/mL

Question: What about the “filipin III signal” value ([3]; 1.1 μM) of the same molecule?
Answer: a decreased level of filipin III signal

Question: Which “phosphatidylserine exposure (annexin V)” value [4] does the source give for `CC[C@H](C)[C@H](NC(=O)CN)C(=O)NCC(=O)N[C@@H](C)C(=O)N[C@H](C(=O)N[C@@H](CC(C)C)C(=O)N[C@@H](CCCCN)C(=O)N[C@H](C(=O)N[C@@H](CC(C)C)C(=O)N[C@H](C(=O)N[C@H](C(=O)NCC(=O)N[C@@H](CC(C)C)C(=O)N1CCC[C@H]1C(=O)N[C@@H](C)C(=O)N[C@@H](CC(C)C)C(=O)N[C@H](C(=O)N[C@@H](CO)C(=O)N[C@@H](Cc1c[nH]c2ccccc12)C(=O)N[C@H](C(=O)N[C@@H](CCCCN)C(=O)N[C@@H](CCCNC(=N)N)C(=O)N[C@@H](CCCCN)C(=O)N[C@@H](CCCNC(=N)N)C(=O)N[C@@H](CCC(N)=O)C(=O)N[C@@H](CCC(N)=O)C(N)=O)[C@@H](C)CC)[C@@H](C)CC)[C@@H](C)O)[C@@H](C)O)C(C)C)C(C)C` [melittin] here?
Answer: almost no phosphatidylserine exposure

Question: And the PI-positive protoplasts [5]?
Answer: ~70%

Question: And the MIC (Cryptococcus neoformans; strain H99, RPMI 1640 + 0.165 M MOPS)?
Answer: 2.5 μM and 7.12 μg/mL

Question: What about the protoplasts ruptured [6] of the same molecule?
Answer: ~80%

Question: What about the cells killed (C. neoformans H99 cells [7]) of the same molecule?
Answer: ~70%
